The results in this text go back to patent US10568877B2, “Preparation and anti-HSV-1 application of quinolinone derivatives” (OCEAN UNIVERSITY OF CHINA, priority 2015, dated 2020).

In one data set the test system is HSV-1. As to the kind of experiment: Antiviral activity against HSV-1 by cytopathic (CPE) assay in Hep-2 cells. It counts as cell-based, Herpes Simplex Virus 1. As to conditions: Human alphaherpesvirus 1; anti-HSV-1 activity, CPE assay, Hep-2 cells, neutral red OD 540 nm, Reed-Muench. The procedure:
The antiviral activities against HSV-1 were evaluated by cytopathic (CPE) assay. Hep-2 monolayer cells were treated with trypsin enzyme and transferred to 96-well plates. HSV-1 viruses were seeded with Hep-2 cells in 96-well plates, with 2% RPMI-1640 medium, and incubated under 37° C., 5% CO2. After more than 90% lesions, the virus-infected cells were repeatedly freezed and thawed for 3 times, centrifuged, and stored in the refrigerator at −80° C. Each tested compound was dissolved in 10 μL DMSO to make a homogeneous solution and the solution was diluted 10 times by one-to-one dilution with 2% RPMI-1640 medium. The solution gradient was added to the infected cells incubated in 96-well plates. Ribavirin was used as positive control. Normal cells alone and infected cells alone were used as control. All samples were incubated under 37° C., 5% CO2. Examine pathological changes once every hour, for 24 h. […] OD value was determined at 540 nm. IC50 values of the tested compounds were calculated by Reed-Muench methods.
On the technique in general: Protection from cytopathic effect is a common read-out in antiviral testing.
Broadly, the IC50 is the concentration that inhibits the measured activity by half. The low end stands for inhibition by little substance, the high end for a need for much substance. With `COc1ccc([C@@]2(O)c3c(ccc(/C=C/[C@@]4(C)OC(C)(C)[C@@H]5C[C@@H]54)c3O)NC(=O)[C@@H]2OC)cc1` [Compound 5], the IC50 was 2 to 25 µM.

On to `O=c1[nH]c2ccccc2c(-c2ccccc2)c1O` [Compound 30], for which the IC50 was in the range of 25 to 50 µM.

`COc1ccc([C@@]2(O)c3c(ccc(CC=C(C)C)c3O)NC(=O)[C@@H]2OC)cc1` [Compound 17] came in with an IC50 of 25 to 50 µM.

With `C=C(C)[C@H]1CC[C@](C)(/C=C/c2ccc3c(c2O)[C@@](O)(c2ccccc2)[C@H](OC)C(=O)N3)O1` [Compound 1], the IC50 was in the range of 0.05 to 2 µM.

Regarding `COc1ccc([C@@]2(O)c3c(ccc(/C=C/[C@@]4(C)OC(C)(C)[C@H]5C[C@H]54)c3O)NC(=O)[C@@H]2OC)cc1` [Compound 6], the IC50 was in the range of 2 to 25 µM.

As for `COc1ccc([C@@]2(O)c3c(ccc(/C=C/C(C)=O)c3O)NC(=O)[C@@H]2OC)cc1` [Compound 18], the IC50 was in the range of 25 to 50 µM.

`C=C(C)/C=C/c1ccc2c(c1O)[C@](O)(c1ccc(OC)cc1)[C@@H](OC)C(=O)N2` [Compound 19]: the IC50 was in the range of 25 to 50 µM.

`COc1ccc([C@@]2(O)c3c(ccc(/C=C/[C@@]4(C)CCC(C)(C)CO4)c3O)NC(=O)[C@@H]2OC)cc1` [Compound 11] came in with an IC50 of 2 to 25 µM.

With `CO[C@@H]1C(=O)Nc2ccc(/C=C/[C@]3(C)CC[C@@H](O)[C@@H](C)C3)c(O)c2[C@@]1(O)c1ccccc1` [Compound 3], the IC50 fell in the range of 0.05 to 2 µM.

In the case of `COc1ccc(-c2c(O)c(=O)[nH]c3ccccc23)cc1` [Compound 29], the IC50 is 25 to 50 µM.

Take `CO[C@@H]1C(=O)Nc2ccc(/C=C/[C@@]3(C)CCC(=O)[C@@H](C)C3)c(O)c2[C@@]1(O)c1ccccc1` [Compound 4]: the IC50 was in the range of 0.05 to 2 µM.

Compound `COc1ccc([C@@]2(O)c3c(ccc(/C=C/[C@]4(C)CC[C@@H](O)C(C)(C)O4)c3O)NC(=O)[C@@H]2OC)cc1` [Compound 7] returned an IC50 of 2 to 25 µM.

`CO[C@@H]1C(=O)Nc2ccc(/C=C/[C@]3(C)CCC(=O)[C@@H](C)C3)c(O)c2[C@@]1(O)c1ccccc1` [Compound 2a] came in with an IC50 of 0.05 to 2 µM.

As for `COc1ccc([C@]2(O)c3ccccc3NC(=O)[C@H]2O)cc1` [Compound 16], the IC50 lay within 50 to 100 µM.

Consider `NC(=O)c1ncn([C@@H]2O[C@H](CO)[C@@H](O)[C@H]2O)n1` [Ribavirin, reference compound], for which the IC50 fell in the range of 50 to 100 µM.

For `COc1ccc([C@@]2(O)c3c(ccc(/C=C/C4(C)CCC(C)(C)C(O)O4)c3O)NC(=O)[C@@H]2OC)cc1` (some centres unmarked) [Compound 10], the IC50 fell in the range of 0.05 to 2 µM.

`COc1ccc([C@]2(O)c3c(O)cccc3NC(=O)[C@H]2O)cc1` [Compound 15] returned an IC50 of 50 to 100 µM.

The data set is the same for the next values; noted with them: TC50 = median toxic concentration for Hep-2 monolayer cells; IC50 against HSV-1.
On to `COc1ccc([C@@]2(O)c3c(ccc(/C=C/[C@]4(C)CCC(C)(C)CO4)c3O)NC(=O)[C@@H]2OC)cc1` [Compound 12], for which the “TI = TC50/IC50” value was “++ (“++” means TI was between 20 and 100)”.

On to `NC(=O)c1ncn([C@@H]2O[C@H](CO)[C@@H](O)[C@H]2O)n1` [Ribavirin, reference compound], for which the “TI = TC50/IC50” value is recorded as “++++ (“++++” means TI > 500)”.

The data set is the same for the next values; noted with them: anti-HSV-1 activity, CPE assay, Hep-2 cells, neutral red OD 540 nm, Reed-Muench.
With `COc1ccc([C@@]2(O)c3c(ccc(/C=C/[C@]4(C)CCC(C)(C)CO4)c3O)NC(=O)[C@@H]2OC)cc1` [Compound 12], the IC50 was in the range of 2 to 25 µM.
